Laboratory results: ChEMBL document CHEMBL1123713, “Synthesis and calcium channel antagonist activity of dialkyl 4- (dihydropyridinyl)-1,4-dihydro-2,6-dimethyl-3,5-pyridinecarboxylates” (J Med Chem, 1987)

Organism: Cavia porcellus
Assay: Negative logarithm antagonist concentration causing 50% inhibition of tonic CD response in the guinea pig ileal longitudinal smooth muscle preparation
Assay type: functional, Muscle tissue
Conditions: not given

| SMILES | -Log ID50 |
| --- | --- |
| CC1=NC(C)=C(C(=O)OC(C)C)C(C2=CC=CN(C(=O)Oc3ccccc3)C2)/C1=C(\O)OC(C)C (stereo not given) | 5.78 |
| COC(=O)C1=C(C)N=C(C)/C(=C(/O)OC)C1C1=CC=CN(C(=O)Oc2ccccc2)C1 (stereo not given) | 5.43 |
| COC(=O)C1=C(C)N=C(C)/C(=C(/O)OC)C1C1=CC=CN(C(=O)OC)C1 (stereo not given) | 6.23 |
| COC(=O)C1=C(C)N=C(C)/C(=C(/O)OC)C1C1=CC=CN(C(=O)OC(C)(C)C)C1 (stereo not given) | 5.24 |

Molecular target: Voltage-gated L-type calcium channel (Homo sapiens, UniProt Q13936+Q13698+Q01668+O60840)
Assay: Negative log antagonist concentration causing 50% displacement of [3H]nifedipine from guinea pig ileal smooth muscle membrane.
Assay type: tissue-based, Cavia porcellus, Muscle tissue
Conditions: target entry is the homologue from another species

| SMILES | -Log KD50 |
| --- | --- |
| COC(=O)C1=C(C)NC(C)=C(C(=O)OC)C1c1ccccc1[N+](=O)[O-] [NIFEDIPINE] | 9.08 |

Molecular target: Muscarinic acetylcholine receptor (Homo sapiens) (UniProt P20309+P08173+P11229+P08172+P08912);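 further: blockade of Ca2+-dependent contraction driven by muscarinic receptors in longitudinal smooth muscle strips of guinea pig ileum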
Conditions: Cavia porcellus
Description: Inhibition of muscarinic receptor mediated [Ca2+] dependent contraction of guinea pig ileal longitudinal smooth muscle.

| SMILES | ID50 [µM] |
| --- | --- |
| COC(=O)C1=C(C)N=C(C)/C(=C(/O)OC)C1C1=CCN(C(=O)OC)C=C1 (stereo not given) | 7.47 |
| CO/C(O)=C1\C(C)=NC(C)=C(C(=O)OC(C)C)C1C1=CC=CN(C(=O)OC(C)(C)C)C1 (stereo not given) | 0.237 |
| COC(=O)N1C=CC=C(C2C(C#N)=C(C)NC(C)=C2C#N)C1 | 33.9 |
| CCOC(=O)C1=C(C)N=C(C)/C(=C(/O)OCC)C1C1=CCN(C(=O)OC)C=C1 (stereo not given) | 2.43 |
| COC(=O)N1C=CC(C2C(C(=O)OCC(C)C)=C(C)N=C(C)/C2=C(/O)OCC(C)C)=CC1 (stereo not given) | 1.72 |
| COC(=O)N1C=CC(C2C(C(=O)OC(C)C)=C(C)N=C(C)/C2=C(/O)OC(C)C)=CC1 (stereo not given) | 1.01 |
| COC(=O)N1C=CC(C2C(C#N)=C(C)NC(C)=C2C#N)=CC1 | 67.5 |
| CCOC(=O)C1=C(C)N=C(C)/C(=C(/O)OCC)C1C1=CC=CN(C(=O)OC)C1 (stereo not given) | 0.18 |
| CC1=NC(C)=C(C(=O)OCC(C)C)C(C2=CCN(C(=O)OC(C)(C)C)C=C2)/C1=C(\O)OCC(C)C (stereo not given) | 2.03 |
| CO/C(O)=C1\C(C)=NC(C)=C(C(=O)OCC(C)C)C1C1=CCN(C(=O)Oc2ccccc2)C=C1 (stereo not given) | 81 |
| CCOC(=O)C1=C(C)N=C(C)/C(=C(/O)OCC)C1C1=CC=CN(C(=O)OC(C)(C)C)C1 (stereo not given) | 0.672 |
| COC(=O)C1=C(C)N=C(C)/C(=C(/O)OC)C1C1=CC=CN(C(=O)OC)C1 (stereo not given) | 0.589 |
| COC(=O)N1C=CC=C(C2C(C(=O)OCC(C)C)=C(C)N=C(C)/C2=C(/O)OCC(C)C)C1 (stereo not given) | 0.771 |
| COC(=O)N1C=CC(C2C(C(=O)OCC(C)C)=C(C)N=C(C)/C2=C(/O)OC)=CC1 (stereo not given) | 1.76 |
| COC(=O)C1=C(C)N=C(C)/C(=C(/O)OC)C1C1=CC=CN(C(=O)OC(C)(C)C)C1 (stereo not given) | 5.77 |
| COC(=O)N1C=CC=C(C2C(C(=O)OCC(C)C)=C(C)N=C(C)/C2=C(/O)OC)C1 (stereo not given) | 0.031 |
| CO/C(O)=C1\C(C)=NC(C)=C(C(=O)OCC(C)C)C1C1=CCN(C(=O)OC(C)(C)C)C=C1 (stereo not given) | 1.18 |
| COC(=O)N1C=CC=C(C2C(C#N)=C(C)N=C(C)/C2=C(/O)OC)C1 (stereo not given) | 51.6 |
| CO/C(O)=C1\C(C)=NC(C)=C(C(=O)OCC(C)C)C1C1=CC=CN(C(=O)OC(C)(C)C)C1 (stereo not given) | 0.128 |
| CC1=NC(C)=C(C(=O)OCC(C)C)C(C2=CC=CN(C(=O)OC(C)(C)C)C2)/C1=C(\O)OCC(C)C (stereo not given) | 3.42 |

Further lines, results first:

| ID50 [µM] | SMILES |
| --- | --- |
| 0.114 | CC1=NC(C)=C(C(=O)OC(C)C)C(C2=CC=CN(C(=O)OC(C)(C)C)C2)/C1=C(\O)OC(C)C (stereo not given) |
| 0.158 | COC(=O)N1C=CC=C(C2C(C(=O)OC(C)C)=C(C)N=C(C)/C2=C(/O)OC)C1 (stereo not given) |
| 0.865 | CCOC(=O)C1=C(C)N=C(C)/C(=C(/O)OCC)C1C1=CC=CN(C(=O)Oc2ccccc2)C1 (stereo not given) |
| 0.9 | CO/C(O)=C1\C(C)=NC(C)=C(C(=O)OC(C)C)C1C1=CC=CN(C(=O)Oc2ccccc2)C1 (stereo not given) |
| 6.46 | CC1=NC(C)=C(C(=O)OCC(C)C)C(C2=CC=CN(C(=O)Oc3ccccc3)C2)/C1=C(\O)OCC(C)C (stereo not given) |
| 1.67 | CC1=NC(C)=C(C(=O)OC(C)C)C(C2=CC=CN(C(=O)Oc3ccccc3)C2)/C1=C(\O)OC(C)C (stereo not given) |
| 3.69 | COC(=O)C1=C(C)N=C(C)/C(=C(/O)OC)C1C1=CC=CN(C(=O)Oc2ccccc2)C1 (stereo not given) |
| 0.51 | CC1=NC(C)=C(C(=O)OCC(C)C)C(C2=CCN(C(=O)Oc3ccccc3)C=C2)/C1=C(\O)OCC(C)C (stereo not given) |
| 0.131 | COC(=O)N1C=CC=C(C2C(C(=O)OC(C)C)=C(C)N=C(C)/C2=C(/O)OC(C)C)C1 (stereo not given) |
| 0.045 | CO/C(O)=C1\C(C)=NC(C)=C(C(=O)OCC(C)C)C1C1=CC=CN(C(=O)Oc2ccccc2)C1 (stereo not given) |
